Measurements published in patent publication US20040248869A1, “Method for finding novel active ingredients having androgen-type properties” (priority 2001, published 2004).

Key:
genital fibroblasts = conditions: Loire et al., Sultan et al.; cited from earlier work
male adult fibroblasts = male adult fibroblasts (cultures 2-6); increase based on the blank value; average of the two measuring conditions
Experimental: The process may be carried out, for example, as follows: cell suspensions of human fibroblasts (embryonal cells of adult male origin) are mixed with 1 to 2 mg/ml of a collagen suspension. […] After incubation for 7 days at 27° C./5% by volume carbon dioxide in a steam-saturated atmosphere, biopsies are taken and histological sections prepared. The quantity of macromolecules formed can be determined by two different methods:
1. a general determination by coloring the glucosaminoglucans (GAGs) with PAS Alcian Blue (standard coloration) and
2. a specific immunohistochemical characterization of certain elements of the matrix by treatment with antibodies, more especially anti-chondroitin sulfate, anti-keratan sulfate, anti-heparan sulfate, anti-dermatan sulfate, anti-elastin and anti-collagen (type III).
The fibroblasts are examined with a photon microscope in regard to the coloration (PAS Alcian) and with a confocal laser microscope in regard to the immunohistology. In order to determine the quantity of dermal macromolecules formed, micrographs are taken and the zones around the fibroblasts (“perifibroblastic zones”) are analyzed. Counting is done by image analysis, i.e. by determining the perifibroblastic zones and the gray level. Both parameters are directly proportional to the synthesis of dermal macromolecules. The results are evaluated in relation to the corresponding results without addition of the active components.
The numbers represent the increase in %-rel., based on the blank value, i.e. the absence of the male sex hormones, and expressed as the average of the two measuring conditions.

embryonal fibroblasts = assay: Synthesis of dermal macromolecules in fibroblast cultures in collagen gel (embryonal fibroblasts); assay type: cell-based, human; conditions: increase based on the blank value (absence of hormone), average of the two measuring conditions
human skin cells = conditions: differentiation of human skin cells; cited from earlier work
epidermis = conditions: topical application, axillae of relatively old males; Kligman et al.; cited from earlier work

C[C@]12CCC(=O)C[C@@H]1CC[C@@H]1[C@@H]2CC[C@]2(C)[C@@H](O)CC[C@@H]12 [DHT, dihydrotestosterone]
DNA or protein distribution in the target cell (genital fibroblasts): does not affect
Increase in the synthesis of macromolecules: Elastin (male adult fibroblasts): +552 %-rel.
Increase in the synthesis of macromolecules: Heparan sulfate (male adult fibroblasts): +486 %-rel.

C[C@]12CC[C@H]3[C@@H](CCC4=CC(=O)CC[C@@]43C)[C@@H]1CC[C@@H]2O [T (soluble), testosterone]
Increase in the synthesis of macromolecules: Chondroitin sulfate (embryonal fibroblasts): +23 %-rel.
Increase in the synthesis of macromolecules: Collagen (embryonal fibroblasts): +17 %-rel.
Increase in the synthesis of macromolecules: Elastin (embryonal fibroblasts): +11 %-rel.

C[C@]12CC[C@H]3[C@@H](CCC4=CC(=O)CC[C@@]43C)[C@@H]1CC[C@@H]2O [T, testosterone]
reduction of granular cells, keratohyalin granules and keratinosomes (human skin cells): does counteract the reduction
Increase in the synthesis of macromolecules: Chondroitin sulfate (male adult fibroblasts): +537 %-rel.
Increase in the synthesis of macromolecules: Elastin (male adult fibroblasts): +2753 %-rel.
Increase in the synthesis of macromolecules: Keratan sulfate (male adult fibroblasts): +83 %-rel.

CCC(=O)O[C@H]1CC[C@H]2[C@@H]3CCC4=CC(=O)CC[C@]4(C)[C@H]3CC[C@]12C [testosterone propionate]
strength of the epidermis (epidermis): increases the strength of the epidermis
